Results reported in patent publication US20070167412A1, “HALOCOMBSTATINS AND METHODS OF SYNTHESIS THEREOF” (ARIZONA BOARD OF REGENTS, priority 2003, published 2007).
≈ marks a conversion by molar mass, not a printed value. Like-named read-outs stand apart in the source and are kept apart here.

How the values were obtained:
Breast MCF-7 = assay: human cancer cell growth inhibition, sulforhodamine B assay; type: cell-based; details: Homo sapiens, MCF7; Table I; 48 hours; read-out: Human cancer cell line inhibition (GI50) Breast adn MCF-7
Experimental: (§1) Inhibition of human cancer cell growth was assessed using the National Cancer Institute's standard sulforhodamine B assay. After 48 hours, the plates were fixed with trichloracetic acid, stained with sulforhodamine B and read with an automated microplate reader. […] Inhibition of the mouse leukemia P388 cells was assessed in a 10% horse serum/Fisher medium soution for 24 hours, followed by a 48 hour incubation with serial dilutions of the compounds. Cell growth inhibition (ED50) was then calculated using a Z1 Becleman/Coulter particle counter.

CNS SF268 = assay: as above; type: cell-based; details: Table I, 48 hours
Experimental: as §1

Colon KM20L2 = assay: as above; type: cell-based; details: Table I, 48 hours
Experimental: as §1

Lung-NSC NCI-H460 = assay: as above; type: cell-based; details: Table I, 48 hours
Experimental: as §1

Pancreas BXPC-3 = assay: as above; type: cell-based; details: Table I, 48 hours
Experimental: as §1

Prostate DU-145 = assay: as above; type: cell-based; details: Table I, 48 hours
Experimental: as §1

purified tubulin = system: T1, purified tubulin; assay: inhibition of tubulin polymerization (turbidimetry); type: biochemical
T1 construct: other: 10 μM tubulin, GTP 0.4 mM, 30° C., extent after 20 minutes
Experimental: (§2) Tubulin polymerization was evaluated by turbidimetry at 350 nm using Beckman DU7400/7500 spectrophotometers as described in detail elsewhere. […] Varying concentrations of drug were preincubated with 10 μM:M ([…]) purified tubulin (See Hamel, E., et al., Separation of Active Tubulin and Microtubule-associated Proteins by Ultracentrifiigation and Isolation of a Component Causing the Formation of Microtubule Bundles, Biochemistry 1984, 23, 4173-4184). Samples were chilled on ice, GTP (0.4 mM) was added, and polymerization was followed at 30° C. The parameter measured was extent of the reaction after 20 minutes. Coichicine binding was measured as described in detail previously. Reaction mixtures contained 1.0 μM :M tubulin, 5.0:M, [^3H]colchicine (from Dupont), and inhibitor at 1.0 μM:M. Incubation was for 10 minutes at 37° C.
Tubulin Evaluations: Tubulin polymerization was evaluated by turbidimetry at […] using Beckman DU7400/7500 spectrophotometers as known to one of skill in the art. Varying concentrations of the compound were preincubated with 10 μM. […]

tubulin = assay: inhibition of [3H]colchicine binding to tubulin; details: 1.0 μM tubulin, 5.0 μM [3H]colchicine, inhibitor at 1.0 μM, 10 minutes at 37° C.
Experimental: as §2

Candida albicans = assay: reference broth microdilution susceptibility assay; type: cell-based; details: Table III
Description: (§3) The halocombstatins of the present invention appear to also have antimicrobial properties. More specifically, they appear to have antifungal and/or antibacterial properties. Antimicrobial evaluation of the halocombstatins involved susceptibility testing performed by the reference broth microdilution assay. The antimicrobial activities of the halocombstatins were very similar, targeting Gram-positive bacteria and the pathogenic fungi Cryptococcus neoformans, and results are shown in Table III.
(§4) (See Pettit, G. R., et al., Antineoplastic Agents 463. Synthesis of Combretastatin A-3 Diphosphates, Anticancer Drug Design 2000, 15, 397-404.) To determine the antimicrobial activity of the present compounds, susceptibility testing was performed by the reference broth microdilution assay. (See National Committee for Clinical Laboratory Standards. Methods for Dilution Antimicrobial Susceptibility Tests for Bacteria that Grow Aerobically. Approved Standard M7-A5. Wayne, P A: NCCLS, 2000. National Committee for Clinical Laboratory Standards. Reference Method for Broth Dilution Antifungal Susceptibility Testing of Yeasts. Aproved Standard M27-A. Wayne, P A: NCCLS, 1997.) The antimicrobial activities of the halocombretastatins of the present invention were very similar, targeting Gram-positive bacteria and Cryptococcus neoformans. This is illustrated in further detail in Table III. Thus, several of the novel compounds of the present invention appear to have potential as antimicrobial agents, such as antifingals and antibacterials.

Cryptococcus neoformans = assay: reference broth microdilution susceptibility assay; type: cell-based; details: Table III
Description: as §3, §4

Enterobacter cloacae = assay: reference broth microdilution susceptibility assay; type: cell-based; details: Table III
Description: as §3, §4

Enterococcus faecalis = assay: reference broth microdilution susceptibility assay; type: cell-based; details: Table III
Description: as §3, §4

Escherichia coli = assay: reference broth microdilution susceptibility assay; type: cell-based; details: Table III
Description: as §3, §4

Micrococcus luteus = assay: reference broth microdilution susceptibility assay; type: cell-based; details: Table III
Description: as §3, §4

Neisseria gonorrhoeae = assay: reference broth microdilution susceptibility assay; type: cell-based; details: Table III
Description: as §3, §4

Staphylococcus aureus = assay: reference broth microdilution susceptibility assay; type: cell-based; details: Table III
Description: as §3, §4

[1] = system: Stenotrophomonas maltophilia; assay: reference broth microdilution susceptibility assay; type: cell-based; details: Table III
Description: as §3, §4

Streptococcus pneumoniae = assay: reference broth microdilution susceptibility assay; type: cell-based; details: Table III
Description: as §3, §4

KAT-4 = assay: human anaplastic thyroid carcinoma cell line inhibition; type: cell-based
Experimental: (§5) Inhibition of human cancer cell growth was assessed using the National Cancer Institute's standard sulforhodamine B assay. After 48 hours, the plates were fixed with trichloracetic acid, stained with sulforhodamine B and read with an automated microplate reader. A growth inhibition of 50% (GI50 or the drug concentration causing a 50% reduction in the net protein increase) was calculated from optical density data with Inmunosoft software. Inhibition of the mouse leukemia P388 cells was assessed in a 10% horse serum/Fisher medium soution for 24 hours, followed by a 48 hour incubation with serial dilutions of the compounds. Cell growth inhibition (ED50) was then calculated using a Z1 Becleman/Coulter particle counter.

SW1736 = assay: as above; type: cell-based
Experimental: as §5

[2] = system: human umbilical vein endothelial cells (HUVEC); assay: HUVEC growth inhibition, sulforhodamine B assay; type: cell-based
Experimental: (§6) In vitro Matrigel antiangiogenesis assays were implemented according to the Developmental Therapeutics Program NCI/NIH protocols known to one of skill in the art. Matrigel, a basement membrane matrix, was obtained from BD Biosciences. Growth inhibition and cord formation assays were Conducted using human umbilical vein endothelial cells obtained from GlycoTeCh. HUVEC cells were grown in EGM-2 medium.
The standard sulforhodamine B assay (see Cancer Cell Line Procedures above) was used to evaluate results using HUVEC cells. IC50 or ED50 (drug concentration causing 50% inhibition) was calculated from the plotted data.

[3] = system: human umbilical vein endothelial cells (HUVEC); assay: Matrigel cord formation assay; type: cell-based; set-up: key to Lengths of Cords: −: No Cords; +: Small; ++: ˜50% of Control; +++: Same as Control; details: 24 hours, compared to untreated controls
Experimental: as §6
(§7) An aliquot of sixty microliters was placed in each well of an ice-cold 96-well plate. The plates were then left for 15 minutes at room temperature, then incubated for 30 minutes at 37° C. to permit the matrigel to polymerize. Meanwhile, HUVEC cells were harvested and diluted to a concentration of 2×10^5 cells/ml. A solution of 100 μL containing the compounds to be tested was added next. After 24 hours incubation, pictures were taken for each concentration using an inverted Nikon Diaphot microscope and D100 digital camera. Drug effect was assessed, compared to untreated controls, by measuring the length of cords formed and number ofjunctions.

[4] = system: human umbilical vein endothelial cells (HUVEC); assay: Matrigel cord formation assay; type: cell-based; set-up: key: −: No Cords; +: Small; ++: ˜50% of Control; +++: Same as Control; details: 24 hours, compared to untreated controls
Experimental: as §6, §7

[5] = system: human umbilical vein endothelial cells (HUVEC); assay: Matrigel cord formation assay; type: cell-based; set-up: key: −: No Junctions; +: Few; ++: ˜50% of Control; +++: Same as Control; details: 24 hours, compared to untreated controls
Experimental: as §6, §7

## COc1ccc(/C=C\c2cc(Br)c(OC)c(OC)c2)cc1O [Compound 13a, 3-Bromo-4,4′,5-trimethoxy-3′-hydroxy-Z-stilbene]
Breast MCF-7
  GI50: < 1 ng/mL
CNS SF268; Homo sapiens, SF-268, read-out: Human cancer cell line inhibition (GI50) CNS SF268
  GI50: < 1 ng/mL
Colon KM20L2; Homo sapiens, KM-20L2, read-out: Human cancer cell line inhibition (GI50) Colon KM20L2
  GI50: 0.086 µg/mL (≈ 0.235 µM)
Lung-NSC NCI-H460; Homo sapiens, NCI-H460, read-out: Human cancer cell line inhibition (GI50) Lung-NSC NCI-H460
  GI50: < 1 ng/mL
Pancreas BXPC-3; Homo sapiens, BXPC-3, read-out: Human cancer cell line inhibition (GI50) Pancreas-a BXPC-3
  GI50: 0.16 µg/mL (≈ 0.438 µM)
Prostate DU-145; Homo sapiens, DU-145, read-out: Human cancer cell line inhibition (GI50) Prostate DU-145
  GI50: < 1 ng/mL
Purified tubulin; 10 μM tubulin, GTP 0.4 mM, 30° C., extent after 20 minutes, read-out: Inhibition of polymerization IC50 ± S.D.
  IC50: 1500 ± 200 nM
tubulin
  Inhibition of colchicine binding % inhibition ± S.D.: 89 ± 2%
Candida albicans
  Range of minimum inhibitory concentration, Candida albicans: * (no inhibition at 64 μg/ml)
Cryptococcus neoformans
  Range of minimum inhibitory concentration, Cryptococcus neoformans: * (no inhibition at 64 μg/ml)
Enterobacter cloacae
  Range of minimum inhibitory concentration, Enterobacter cloacae: * (no inhibition at 64 μg/ml)
Enterococcus faecalis
  Range of minimum inhibitory concentration, Enterococcus faecalis: * (no inhibition at 64 μg/ml)
Escherichia coli
  Range of minimum inhibitory concentration, Escherichia coli: * (no inhibition at 64 μg/ml)
Micrococcus luteus
  Range of minimum inhibitory concentration, Micrococcus luteus: 32 to 64 µg/mL
Neisseria gonorrhoeae
  Range of minimum inhibitory concentration, Neisseria gonorrhoeae: 32 to 64 µg/mL
Staphylococcus aureus
  Range of minimum inhibitory concentration, Staphylococcus aureus: * (no inhibition at 64 μg/ml)
[1]
  Range of minimum inhibitory concentration, Stenotrophomonas maltophilia: * (no inhibition at 64 μg/ml)
Streptococcus pneumoniae
  Range of minimum inhibitory concentration, Streptococcus pneumoniae: * (no inhibition at 64 μg/ml)
other
  melting point: 108 to 109 °C

## COc1ccc(/C=C\c2cc(I)c(OC)c(I)c2)cc1O [Compound 22a, 3,5-diiodo-4,4′-dimethoxy-3′-hydroxy-z-stilbene]
KAT-4; Homo sapiens, KAT-4
  GI50: 0.039 to 0.063 µg/mL (≈ 0.0768 to 0.124 µM)
SW1736; Homo sapiens, SW-1736
  GI50: 1.2 µg/mL (≈ 2.36 µM)
[2]; HUVEC, 0.00001 μg/ml
  Relative % Growth: 87%
[2]; HUVEC, 0.0001 μg/ml
  Relative % Growth: 84%
[2]; HUVEC, 0.001 μg/ml
  Relative % Growth: 8%
[2]; HUVEC, 0.01 μg/ml
  Relative % Growth: 4%
[2]; Homo sapiens, HUVEC, Table V, read-out: Human Umbilical Vein Endothelial Cell (HUVEC) Inhibition Values (GI50)
  GI50: 0.28 ng/mL (≈ 0.000551 µM)
[3]; 0.0001 μg/ml
  Lengths of Cords: +++
[3]; 0.001 μg/ml
  Lengths of Cords: +
[3]; 0.01 μg/ml
  Lengths of Cords: −
[4]; 0.0001 μg/ml
  Number of junctions: +++
[5]; 0.01 μg/ml
  Number of junctions: −

## Potassium 3,5-dilodo-4,4′dimethoxy-z-stilbene 3′-O-phosphate [Compound S (Table Ia)]
KAT-4
  Human Anaplastic Thyroid Carcinoma Cell Line Inhibition Values (GI50) KAT-4: 0.38 to 0.44 µg/mL
SW1736
  Human Anaplastic Thyroid Carcinoma Cell Line Inhibition Values (GI50) SW1736: >10 µg/mL
[2]; HUVEC, 0.0001 μg/ml
  Relative % Growth: 96%
[2]; HUVEC, 0.001 μg/ml
  Relative % Growth: 88%
[2]; HUVEC, 0.01 μg/ml
  Relative % Growth: 33%
[2]; HUVEC, 0.1 μg/ml
  Relative % Growth: 15%
[2]; Table V
  Human Umbilical Vein Endothelial Cell (HUVEC) Inhibition Values (GI50): 4.9 ng/mL
[3]; 0.001 μg/ml
  Lengths of Cords: +++
[3]; 0.1 μg/ml
  Lengths of Cords: −
[4]; 0.001 μg/ml
  Number of junctions: +++
[5]; 0.1 μg/ml
  Number of junctions: −

## Potassium 3-iodo-4,4′,5-trimethoxy-z-stilbene 3′-O-phosphate [Compound 20c]
KAT-4
  Human Anaplastic Thyroid Carcinoma Cell Line Inhibition Values (GI50) KAT-4: 0.37 to 0.43 µg/mL
SW1736
  Human Anaplastic Thyroid Carcinoma Cell Line Inhibition Values (GI50) SW1736: >10 µg/mL
[2]; HUVEC, 0.00001 μg/ml
  Relative % Growth: 95%
[2]; HUVEC, 0.0001 μg/ml
  Relative % Growth: 77%
[2]; HUVEC, 0.001 μg/ml
  Relative % Growth: 10%
[2]; HUVEC, 0.01 μg/ml
  Relative % Growth: 1%
[2]; Table V
  Human Umbilical Vein Endothelial Cell (HUVEC) Inhibition Values (GI50): 0.25 ng/mL
[3]; 0.00001 μg/ml
  Lengths of Cords: +++
[3]; 0.0001 μg/ml
  Lengths of Cords: +++
[3]; 0.001 μg/ml
  Lengths of Cords: ++
[4]; 0.00001 μg/ml
  Number of junctions: +++
[4]; 0.0001 μg/ml
  Number of junctions: +++

## combretastatin A-4 [Compound 1a, reference compound]
CNS SF268
  Human cancer cell line inhibition (GI50) CNS SF268: <1 ng/mL
Colon KM20L2
  Human cancer cell line inhibition (GI50) Colon KM20L2: 0.061 µg/mL
Lung-NSC NCI-H460
  Human cancer cell line inhibition (GI50) Lung-NSC NCI-H460: 0.6 ng/mL
Pancreas BXPC-3
  Human cancer cell line inhibition (GI50) Pancreas-a BXPC-3: 0.39 µg/mL
Prostate DU-145
  Human cancer cell line inhibition (GI50) Prostate DU-145: 0.8 ng/mL
Purified tubulin; text b32, read-out: IC50, inhibition of the polymerization reaction
  IC50: 1800 nM
tubulin
  Inhibition of colchicine binding % inhibition ± S.D.: 81 ± 3%
